According to patent publication US20250064941A1, “SIGLEC LIGANDS, CONJUGATES, AND METHODS OF USE THEREOF” (Osprey Biopharmaceuticals, Inc., priority 2023, published 2025):

Experiments:
[1] = biological target: T1, mouse Siglec-2-Fc-Avi (CD22) (Mus musculus, UniProt P35329); assay: SPR binding affinity to mouse CD22; conditions: steady-state analysis
T1 construct: made in house
T1 sequence (P35329 22-708 limits assumed): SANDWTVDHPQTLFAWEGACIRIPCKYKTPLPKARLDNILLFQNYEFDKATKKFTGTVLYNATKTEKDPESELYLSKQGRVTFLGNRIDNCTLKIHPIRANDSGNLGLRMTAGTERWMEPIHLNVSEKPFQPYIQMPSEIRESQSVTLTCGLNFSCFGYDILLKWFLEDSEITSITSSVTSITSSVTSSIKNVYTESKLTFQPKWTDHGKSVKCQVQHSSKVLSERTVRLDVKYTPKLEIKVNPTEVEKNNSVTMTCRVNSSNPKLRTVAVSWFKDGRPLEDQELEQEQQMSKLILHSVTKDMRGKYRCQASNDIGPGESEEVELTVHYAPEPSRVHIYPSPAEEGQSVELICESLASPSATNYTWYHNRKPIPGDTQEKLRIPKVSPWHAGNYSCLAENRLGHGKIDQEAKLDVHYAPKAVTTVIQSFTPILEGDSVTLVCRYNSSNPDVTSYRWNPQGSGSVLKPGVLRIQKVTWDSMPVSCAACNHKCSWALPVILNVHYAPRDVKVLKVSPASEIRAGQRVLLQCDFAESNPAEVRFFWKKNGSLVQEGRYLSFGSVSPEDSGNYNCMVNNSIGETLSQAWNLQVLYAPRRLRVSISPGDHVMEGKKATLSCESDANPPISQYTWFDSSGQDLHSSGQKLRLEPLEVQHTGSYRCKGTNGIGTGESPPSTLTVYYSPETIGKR
Protocol: (§1) Prior to immobilization, CD22 proteins were treated with SialoExo (Genovis, Cat #G1-SM1-020) for 4 hours at 37° C. to remove native sialic acid residues.
(§2) Capture of biotinylated CD22 constructs was performed using a Cytiva SA chip (BR100398) on a Biacore 8K instrument.
(§3) Binding experiments of Siglec-ligand conjugated proteins or Siglec ligand compounds were performed on the surfaces prepared above in 10 mM HEPES, 150 mM NaCl, 0.05% Tween-20, pH 7.5, 1% DMSO as the running buffer. […] The compounds were then allowed to dissociate from the surface for 120 seconds. […] Solvent correction was performed using 0.5, 1, 1.5, and 2% DMSO spike into running buffer without DMSO. […] Data was analyzed using steady-state analysis in Biacore Insight Evaluation Software, version 3.0 for Siglec ligand compounds.

[2] = biological target: T2, human Siglec-2/CD22 protein (Homo sapiens, UniProt P20273); assay: SPR binding affinity to human CD22; conditions: steady-state analysis
T2 construct: purchased Acro Biosystems SI2-H82E3
T2 sequence (P20273 20-847): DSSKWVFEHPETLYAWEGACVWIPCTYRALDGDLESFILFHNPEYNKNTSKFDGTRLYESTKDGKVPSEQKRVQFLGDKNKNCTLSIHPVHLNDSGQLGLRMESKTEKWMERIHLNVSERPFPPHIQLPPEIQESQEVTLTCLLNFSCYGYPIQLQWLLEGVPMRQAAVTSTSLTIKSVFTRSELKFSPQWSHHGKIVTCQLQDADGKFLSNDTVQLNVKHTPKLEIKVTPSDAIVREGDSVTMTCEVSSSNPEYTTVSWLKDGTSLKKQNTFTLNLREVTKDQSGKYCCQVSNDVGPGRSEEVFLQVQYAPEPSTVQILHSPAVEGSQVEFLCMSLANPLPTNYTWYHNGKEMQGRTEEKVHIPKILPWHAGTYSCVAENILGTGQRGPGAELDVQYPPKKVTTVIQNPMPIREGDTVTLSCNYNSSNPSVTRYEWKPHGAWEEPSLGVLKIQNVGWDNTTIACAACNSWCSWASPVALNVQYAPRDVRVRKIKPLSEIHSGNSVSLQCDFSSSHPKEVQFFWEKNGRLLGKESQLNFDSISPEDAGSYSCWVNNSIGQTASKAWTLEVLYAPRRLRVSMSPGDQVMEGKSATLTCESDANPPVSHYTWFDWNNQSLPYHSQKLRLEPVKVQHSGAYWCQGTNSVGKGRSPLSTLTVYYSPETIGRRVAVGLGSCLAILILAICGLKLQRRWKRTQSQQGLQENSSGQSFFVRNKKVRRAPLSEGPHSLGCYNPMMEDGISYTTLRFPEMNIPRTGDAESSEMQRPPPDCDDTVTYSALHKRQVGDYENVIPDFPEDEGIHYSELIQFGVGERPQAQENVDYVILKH
Protocol: as §1, §2, §3

Row | Compound | Kd [1] | Kd [2]
1 | C#CCOCCCCCCO[C@]1(C(=O)O)C[C@H](O)[C@@H](Nc2c(NC)c(=O)c2=O)[C@H]([C@H](O)[C@H](O)CNC(=O)Cc2ccc(Cl)cc2)O1 [Compound 191, (2R,4S,5R,6R)-6-((1R,2R)-3-(2-(4-chlorophenyl)acetamido)-1,2-dihydroxypropyl)-4-hydroxy-5-((2-(methylamino)-3,4-dioxocyclobut-1-en-1-yl)amino)-2-((6-(prop-2-yn-1-yloxy)hexyl)oxy)tetrahydro-2H-pyran-2-carboxylic acid] | > 10000 nM | < 1000 nM
2 | CC(=O)NCCOCCOCCOCCOCCNC(=O)CCCCCCO[C@]1(C(=O)O)C[C@H](O)[C@@H](NC(C)=O)[C@H]([C@H](O)[C@H](O)CNC(=O)c2cccc(Cl)c2)O1 [Compound 270, (2R,4S,5R,6R)-5-acetamido-6-((1R,2R)-3-(3-chlorobenzamido)-1,2-dihydroxypropyl)-2-((2,19-dioxo-6,9,12,15-tetraoxa-3,18-diazapentacosan-25-yl)oxy)-4-hydroxytetrahydro-2H-pyran-2-carboxylic acid] | > 10000 nM | 1000 to 10000 nM
3 | C#CCOCCCCCCS[C@]1(C(=O)O)C[C@H](O)[C@@H](NC(=O)CO)[C@H]([C@H](O)[C@H](O)CNC(=O)c2ccc(Cl)cc2)O1 [Compound 251, (2S,4S,5R,6R)-6-((1R,2R)-3-(4-chlorobenzamido)-1,2-dihydroxypropyl)-4-hydroxy-5-(2-hydroxyacetamido)-2-((6-(prop-2-yn-1-yloxy)hexyl)thio) tetrahydro-2H-pyran-2-carboxylic acid] | 1000 to 10000 nM | 1000 to 10000 nM
4 | C#CCOCCOCCNc1c(NCCCCCCO[C@]2(C(=O)O)C[C@H](O)[C@@H](NC(=O)CO)[C@H]([C@H](O)[C@H](O)CNC(=O)c3ccccc3Cl)O2)c(=O)c1=O [Compound 229, (2R,4S,5R,6R)-6-((1R,2R)-3-(2-chlorobenzamido)-1,2-dihydroxypropyl)-2-((6-((3,4-dioxo-2-((2-(2-(prop-2-yn-1-yloxy)ethoxy)ethyl)amino)cyclobut-1-en-1-yl)amino)hexyl)oxy)-4-hydroxy-5-(2-hydroxyacetamido)tetrahydro-2H-pyran-2-carboxylic acid] | 1000 to 10000 nM | 1000 to 10000 nM
5 | C#CCOCCCCCCO[C@]1(C(=O)O)C[C@H](O)[C@@H](NC(=O)c2ccccc2)[C@H]([C@H](O)[C@H](O)CNC(=O)Cc2ccc(Cl)cc2)O1 [Compound 92, (2R,4S,5R,6R)-5-benzamido-6-((1R,2R)-3-(2-(4-chlorophenyl)acetamido)-1,2-dihydroxypropyl)-4-hydroxy-2-((6-(prop-2-yn-1-yloxy)hexyl)oxy)tetrahydro-2H-pyran-2-carboxylic acid] | > 10000 nM | < 1000 nM
6 | CC(=O)NCCOCCOCCOCCOCCn1cc(CCCCCCO[C@]2(C(=O)O)C[C@H](O)[C@@H](NC(=O)CO)[C@H]([C@H](O)[C@H](O)CNC(=O)Cc3ccc(Cl)cc3)O2)nn1 [Compound 263, (2R,4S,5R,6R)-6-((1R,2R)-3-(2-(4-chlorophenyl)acetamido)-1,2-dihydroxypropyl)-4-hydroxy-5-(2-hydroxyacetamido)-2-((6-(1-(2-oxo-6,9,12,15-tetraoxa-3-azaheptadecan-17-yl)-1H-1,2,3-triazol-4-yl)hexyl)oxy)tetrahydro-2H-pyran-2-carboxylic acid] | 1000 to 10000 nM | < 1000 nM

Next, values leading:

Row | Kd [1] | Kd [2] | Compound
7 | 1000 to 10000 nM | < 1000 nM | C#CCOP(=O)(O)OCCCCCO[C@]1(C(=O)O)C[C@H](O)[C@@H](NC(=O)CO)[C@H]([C@H](O)[C@H](O)CNC(=O)Cc2ccc(Cl)cc2)O1 [Compound 95, (2R,4S,5R,6R)-6-((1R,2R)-3-(2-(4-chlorophenyl)acetamido)-1,2-dihydroxypropyl)-4-hydroxy-2-((5-((hydroxy(prop-2-yn-1-yloxy)phosphoryl)oxy)pentyl)oxy)-5-(2-hydroxyacetamido)tetrahydro-2H-pyran-2-carboxylic acid]
8 | 1000 to 10000 nM | < 1000 nM | C#CCOCCOCCNc1c(NCCCCCCO[C@]2(C(=O)O)C[C@H](O)[C@@H](NC(=O)CO)[C@H]([C@H](O)[C@H](O)CNC(=O)c3cccc(Oc4ccccc4)c3)O2)c(=O)c1=O [Compound 39, (2R,4S,5R,6R)-6-((1R,2R)-1,2-dihydroxy-3-(3-phenoxybenzamido)propyl)-2-((6-((3,4-dioxo-2-((2-(2-(prop-2-yn-1-yloxy)ethoxy)ethyl)amino)cyclobut-1-en-1-yl)amino)hexyl)oxy) -4-hydroxy-5-(2-hydroxyacetamido) tetrahydro-2H-pyran-2-carboxylic acid]
9 | 1000 to 10000 nM | 1000 to 10000 nM | C#CCOCCCCCCO[C@]1(C(=O)O)C[C@H](O)[C@@H](NC(=O)CO)[C@H]([C@H](O)[C@H](O)CNC(=O)Cc2ccc(N3CCC(O)CC3)cc2)O1 [Compound 194, (2R,4S,5R,6R)-6-((1R,2R)-1,2-dihydroxy-3-(2-(4-(4-hydroxypiperidin-1-yl)phenyl)acetamido)propyl)-4-hydroxy-5-(2-hydroxyacetamido)-2-((6-(prop-2-yn-1-yloxy)hexyl)oxy)tetrahydro-2H-pyran-2-carboxylic acid]
10 | < 1000 nM | 1000 to 10000 nM | C#CCCOc1ccc(CO[C@]2(C(=O)O)C[C@H](O)[C@@H](NC(=O)CO)[C@H]([C@H](O)[C@H](O)CNC(=O)Cc3ccc(N4CCOCC4)cc3)O2)cc1 [Compound 139, (2R,4S,5R,6R)-2-((4-(but-3-yn-1-yloxy)benzyl)oxy)-6-((1R,2R)-1,2-dihydroxy-3-(2-(4-morpholinophenyl)acetamido)propyl)-4-hydroxy-5-(2-hydroxyacetamido)tetrahydro-2H-pyran-2-carboxylic acid]
11 | < 1000 nM | < 1000 nM | C#CCOCCCCCCO[C@]1(C(=O)O)C[C@H](O)[C@@H](NC(=O)CO)[C@H]([C@H](O)[C@H](O)CNC(=O)Cc2ccc(-c3ccc(NC(C)=O)cc3)cc2)O1 [Compound 204, (2R,4S,5R,6R)-6-((1R,2R)-3-(2-(4′-acetamido-[1,1′-biphenyl]-4-yl)acetamido)-1,2-dihydroxypropyl)-4-hydroxy-5-(2-hydroxyacetamido)-2-((6-(prop-2-yn-1-yloxy)hexyl)oxy)tetrahydro-2H-pyran-2-carboxylic acid]
12 | 1000 to 10000 nM | < 1000 nM | C#CCOCCCCCCO[C@]1(C(=O)O)C[C@H](O)[C@@H](NC(=O)NCC)[C@H]([C@H](O)[C@H](O)CNC(=O)Cc2ccc(Cl)cc2)O1 [Compound 87, (2R,4S,5R,6R)-6-((1R,2R)-3-(2-(4-chlorophenyl)acetamido)-1,2-dihydroxypropyl)-5-(3-ethylureido)-4-hydroxy-2-((6-(prop-2-yn-1-yloxy)hexyl)oxy)tetrahydro-2H-pyran-2-carboxylic acid]
13 | < 1000 nM | < 1000 nM | CC(=O)NCCOCCOCCOCCOCCn1cc(COCCCCCCO[C@]2(C(=O)O)C[C@H](O)[C@@H](NC(=O)CO)[C@H]([C@H](O)[C@H](O)CNC(=O)Cc3ccc(C(F)F)cc3)O2)nn1 [Compound 261, (2R,4S,5R,6R)-6-((1R,2R)-3-(2-(4-(difluoromethyl)phenyl)acetamido)-1,2-dihydroxypropyl)-4-hydroxy-5-(2-hydroxyacetamido)-2-((6-((1-(2-oxo-6,9,12,15-tetraoxa-3-azaheptadecan-17-yl)-1H-1,2,3-triazol-4-yl)methoxy)hexyl)oxy)tetrahydro-2H-pyran-2-carboxylic acid]
